From US20150093744A1 (priority 2013, published 2015)
Values joined by “and” are separate entries in the source; they are usually repeats but may differ in a detail not shown here. Identical values can stand only once. Like-named read-outs stand apart in the source and are kept apart here.

Experiments:
[1] = tested on: Tulane virus capsid binding to Human Blood Group Antigen (HBGA) receptor
[2] = tested on: FCV; settings: cited from earlier work
[3] = tested on: Tulane virus (TV)
[4] = tested on: Tulane virus (TV); remark: listed apart in the source
[5] = tested on: HuNoV (GII.4 NoV)
[6] = tested on: Tulane virus (TV); remark: listed apart in the source
[7] = tested on: MNV; settings: cited from earlier work
[8] = tested on: TV; settings: cited from earlier work

CCO [EtOH, ethanol]
Binding of viral capsid to Human Blood Group Antigen (HBGA) [1]: significantly reduced
EtOH concentration required to exceed 4 D reduction in virus titer [2]: 70%
detection of virus genome or amplification of virus [3]: neither virus genome nor amplification of virus was detectable
detection of virus genome or amplification of virus [4]: neither virus genome nor amplification of virus was detectable
Ct [5]: 40.7 ± 1.4
Reduction(%) [5]: 99.3 ± 0.8%
completeness of inactivation of HuNoV [5]: not complete
reduction in copy number [5]: 99.33% and 88.5% and 99.3%
reduction in copy numbers [5]: < 3 log
ΔCt [5]: 9.7
reduction of TV titer [6]: over 99.5%
EtOH concentration required to exceed 4 D reduction in virus titer [7]: 60%
EtOH concentration required to exceed 4 D reduction in virus titer [8]: 50-70%
